The record followed here is patent US9981945B2, “Pyrimidine derivatives as CFTR modulators” (NuBridge BioSciences, priority 2015, dated 2018).

T1 sequence (P13569 with tags, fused parts or gaps DEL508-508): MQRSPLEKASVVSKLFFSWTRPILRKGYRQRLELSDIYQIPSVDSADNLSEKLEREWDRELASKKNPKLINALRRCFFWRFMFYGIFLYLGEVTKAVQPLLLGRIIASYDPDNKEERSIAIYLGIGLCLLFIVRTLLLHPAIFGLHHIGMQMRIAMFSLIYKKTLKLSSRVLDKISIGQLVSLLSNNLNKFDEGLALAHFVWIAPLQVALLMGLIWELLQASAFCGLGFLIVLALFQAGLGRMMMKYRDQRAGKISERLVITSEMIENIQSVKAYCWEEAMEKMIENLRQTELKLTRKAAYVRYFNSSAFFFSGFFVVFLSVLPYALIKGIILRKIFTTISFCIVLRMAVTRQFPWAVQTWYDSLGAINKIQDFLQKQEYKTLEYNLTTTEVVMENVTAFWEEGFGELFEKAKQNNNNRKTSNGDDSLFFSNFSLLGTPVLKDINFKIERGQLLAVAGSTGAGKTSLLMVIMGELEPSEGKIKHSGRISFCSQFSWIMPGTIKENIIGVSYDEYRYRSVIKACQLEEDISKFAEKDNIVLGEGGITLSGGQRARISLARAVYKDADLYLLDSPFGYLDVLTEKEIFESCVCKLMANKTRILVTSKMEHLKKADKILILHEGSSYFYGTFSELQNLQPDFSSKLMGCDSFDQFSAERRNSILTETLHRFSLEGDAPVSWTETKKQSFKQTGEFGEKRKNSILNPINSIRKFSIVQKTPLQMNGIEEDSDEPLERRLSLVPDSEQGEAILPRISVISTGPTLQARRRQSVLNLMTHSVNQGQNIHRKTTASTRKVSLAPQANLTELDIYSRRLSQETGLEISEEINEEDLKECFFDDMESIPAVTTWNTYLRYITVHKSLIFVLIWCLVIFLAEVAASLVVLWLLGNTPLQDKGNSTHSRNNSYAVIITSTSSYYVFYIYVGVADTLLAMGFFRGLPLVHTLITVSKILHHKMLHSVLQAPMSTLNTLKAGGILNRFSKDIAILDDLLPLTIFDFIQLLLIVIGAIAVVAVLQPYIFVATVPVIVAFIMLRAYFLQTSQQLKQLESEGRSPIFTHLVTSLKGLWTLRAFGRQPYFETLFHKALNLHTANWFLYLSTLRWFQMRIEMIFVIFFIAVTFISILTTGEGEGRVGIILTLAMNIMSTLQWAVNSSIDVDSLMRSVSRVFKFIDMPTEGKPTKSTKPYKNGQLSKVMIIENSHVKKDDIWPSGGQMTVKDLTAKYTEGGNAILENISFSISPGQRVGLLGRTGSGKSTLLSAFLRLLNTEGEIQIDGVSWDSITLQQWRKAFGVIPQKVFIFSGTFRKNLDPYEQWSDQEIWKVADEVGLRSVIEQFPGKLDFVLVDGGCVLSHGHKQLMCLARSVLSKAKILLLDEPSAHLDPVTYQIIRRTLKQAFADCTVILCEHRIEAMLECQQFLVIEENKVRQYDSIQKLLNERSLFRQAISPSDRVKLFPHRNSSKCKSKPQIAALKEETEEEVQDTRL

The assay concerns the target T1, ΔF508 mutant CFTR (Homo sapiens, UniProt P13569, DEL508-508).
T1 construct: expressed in transfected cells; host or cells: Fischer rat thyroid (FRT) cells
Kind of assay: Fluorescence (YFP halide quenching) assay of ΔF508 mutant CFTR activity in FRT cells. It counts as cell-based. Further details: key: fold of mean activity with forskolin alone (I− quenching rate). Particulars: FRT cells expressing ΔF508-CFTR and YFP-H148Q/I152L, rescued at 27° C. 20-24 h; forskolin 20 μM + test compound 20 μM for 20 min; I− influx rate normalized to forskolin alone. An excerpt:
The ΔF508 mutant CFTR activities of the CFTR modulators are detected using the Fluorescence Assay developed by Pedemonte (Pedemonte N., et al., Antihypertensive 1,4-dihydropyridines as correctors of the cystic fibrosis transmembrane conductance regulator channel gating defect caused by cystic fibrosis mutations, Mol. Pharmacol., 2005, 68, 1736-1746).
Fischer rat thyroid (FRT) cells, stably transfected with ΔF508 were retransfected with the YFP-H148Q/I152L fluorescent protein. The cells were plated (100,000 cells/well) on black 96-well microplates with clear plastic bottom (Corning Life Sciences, Acton, Mass.).
The 96-well microplates containing FRT cells expressing F508-CFTR and the halide-sensitive YFP were incubated at 27° C. for 20 to 24 h to allow rescue of the mutant protein to the plasma membrane. After incubation, cells were washed with PBS (containing 137 mM NaCl, 2.7 mM KCl, 8.1 mM Na2HPO4, 1.5 mM KH2PO4, 1 mM CaCl2, and 0.5 mM MgCl2) and stimulated for 20 min with forskolin (20 μM) and test compounds (20 μM) in a final volume of 60 μl. Microplates were then transferred to a microplate reader for CFTR activity determination. Each assay consisted of a continuous 14-s fluorescence reading (5 points per second) with 2 s before and 12 s after injection of 165 μl of an iodide-containing solution (PBS with Cl^− replaced by I^−). Final iodide concentration in the wells was 100 mM. […] To determine I^− influx rate, the final 11 s of the data for each well were fitted with an exponential function to extrapolate initial slope. CFTR activity was determined by measuring the rate of fluorescence quenching induced by extracellular addition of I^−. Data are normalized to the mean activity measured in the presence of forskolin alone.
`Cl.NCC(CO)COc1ncncc1NC(=O)c1ccc(C(F)(F)F)c(-c2c(F)cccc2F)n1` (stereo not shown) [Example 58, N-(4-(3-amino-2-(hydroxymethyl)propoxy)pyrimidin-5-yl)-6-(2,6-difluorophenyl)-5-(trifluoromethyl)picolinamide hydrochloride]: the “CFTR Activity” value came to 2.8. In the case of `Cl.NCC(CO)COc1ncncc1NC(=O)c1nc(-c2c(F)cccc2F)c(C(F)(F)F)cc1N` (stereo not shown) [Example 59, 3-amino-N-(4-(3-amino-2-(hydroxymethyl)propoxy)pyrimidin-5-yl)-6-(2,6-difluorophenyl)-5-(trifluoromethyl)picolinamide hydrochloride] it was 3.0.

As to `Cl.NC1CCCC(Oc2ncncc2NC(=O)c2ccc(C(F)(F)F)c(-c3c(F)cccc3F)n2)C1` (stereo not shown) [Example 60, N-(4-((3-aminocyclohexyl)oxy)pyrimidin-5-yl)-6-(2,6-difluorophenyl)-5-(trifluoromethyl)picolinamide hydrochloride], the “CFTR Activity” value was determined as 4.8. As for `Cl.Nc1cc(C(F)(F)F)c(-c2c(F)cccc2F)nc1C(=O)Nc1cncnc1OC1CCCC(N)C1` (stereo not shown) [Example 61, 3-amino-N-(4-((3-aminocyclohexyl)oxy)pyrimidin-5-yl)-6-(2,6-difluorophenyl)-5-(trifluoromethyl)picolinamide hydrochloride], the “CFTR Activity” value is reported as 4.2.
